# Data as given in patent US11592445B2, “OLFR90 specificity and methods of detection” (THE JOHNS HOPKINS UNIVERSITY, priority 2016, dated 2023).
# Target: T1, Olfr90 (Mus musculus, UniProt Q0VEL5)
# T1 construct: Flag; expressed in transfected cells; host or cells: HEK293T
# T1 sequence (Q0VEL5 1-310): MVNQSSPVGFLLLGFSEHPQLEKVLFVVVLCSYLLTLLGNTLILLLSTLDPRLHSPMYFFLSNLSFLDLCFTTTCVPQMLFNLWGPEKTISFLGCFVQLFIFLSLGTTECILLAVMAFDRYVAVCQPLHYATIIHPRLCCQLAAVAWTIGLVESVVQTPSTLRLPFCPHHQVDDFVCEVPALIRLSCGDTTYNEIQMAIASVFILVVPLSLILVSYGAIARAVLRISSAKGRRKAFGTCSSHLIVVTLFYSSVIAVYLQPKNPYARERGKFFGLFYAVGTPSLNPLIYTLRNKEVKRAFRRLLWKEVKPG
# Experiment: Luciferase reporter assay for ligand screening, HEK293T cells transfected with Lucy-Olfr90
# Assay type: cell-based
# Settings: FIG. 2: p<0.0005 for all conditions vs 0 mM
# Excerpt: HEK293T cells were transfected with Lucy-Olfr90 and two luciferase constructs, one of which was constitutively active (Renilla) while the other was only activated by an increase in intracellular cyclic AMP due to ligand binding (Firefly).
# A luciferase reporter assay was employed for ligand screening (FIG. 1). In this assay, Olfr90 may be transfected into HEK293T cells along with a firefly luciferase construct whose activity is dependent upon elevated [cAMP]i. Upon binding its ligand, the expressed Olfr90 increases [cAMP]i, leading to increased transcription of firefly luciferase (FIG. 1). A constitutively active luciferase (Renilla) is co-transfected; therefore, the ratio of Firefly/Renilla is a measure of OR activation.
# In this assay, it is essential that the Olfr90 is on the cell surface. […] A novel N-terminal tag which allows for surface trafficking of the majority of the renal Olfr90 was used. This tag is a leucine rich 17 amino acid sequence (“Lucy” tag) that not only aids in trafficking to the surface, but is cleaved before the Olfr90 reaches the cell surface.
# In HEK cells or hana3 cells, Olfr90 will be expressed along with along with a firefly luciferase construct whose activity is dependent upon elevated [cAMP]i. Olfr90 may be transfected with or without various chaperones (Ric8b, RTP1S, REEP, etc.) and with or without various tags (Rho, Flag, Lucy, etc.). Upon binding its ligand, the expressed OR increases [cAMP]i, leading to increased transcription of firefly luciferase. A constitutively active luciferase (Renilla) is co-transfected; therefore, the ratio of Firefly/Renilla is a measure of OR activation.
row,SMILES,"Olfr90 response (luciferase output, Firefly/Renilla ratio) to isolated chemicals"
1,C=CC(C)(O)CCC=C(C)C (stereo not drawn) [Linalool],responded in a dose dependent manner
2,"CCCC1CCSC(C)O1 (stereo not drawn) [MPOT, 2-Methyl-4-Propyl-3,1-Oxathiane]",responded in a dose dependent manner
3,"C=CC(O)CCCCC (stereo not drawn) [Odorant 1-Octen-3-ol, 1-Octen-3-ol]",responded in a dose dependent manner
